Patent US7087252B2, “Medicinal preparation containing phenylethanoid glycosides extracted from herbaceous plant, Cistanche tubulosa (Schrenk.) Wight, process of making the same, and uses of the same” (Sinphar Pharmaceutical Co., Ltd., priority 2003, dated 2006)

Key:
[1] = system: learning memory of LACA mice; experiment: Water maze experiment, effect on learning memory of mice (d value analysis of response time); type: in vivo; details: 400 mg/kg orally vs control group; second time test; n = 27
Description: The medicinal preparation of the present invention was used in a water maze experiment to study its effect on the learning memory of LACA mice. The Piracetam Tablets was used as a positive comparative drug for testing 6 days per week. The test lasted for 27 days. According to the data listed in the Table 2, it is readily apparent that the preparation of the present invention has a meaningful effect on the learning memory of the mice, as exemplified by the difference in the response time between the control group and the doped groups, which were respectively doped with 50 mg/kg of the preparation containing phenylethanoid glycosides, 200 mg/kg of the preparation containing phenylethanoid glycosides, and 400 mg/kg of the preparation containing phenylethanoid glycosides.

[2] = system: memory loss of LACA mice induced by ethanol; experiment: Water maze experiment, prevention of memory loss induced by ethanol; type: in vivo; details: 400 mg/kg, one-week orally
Experimental: The effect of the preparation of the present invention on the prevention of memory loss by the LACA mice was studied by the water maze experiment. The mice were orally administered with the drugs. One hour after such an oral administration, they were provided with 30% ethanol 0.1 ml/10 g BW. In 30 minutes, the water maze experiment was started.

[3] = system: blood platelets aggregation of rats; experiment: ADP-caused aggregation of blood platelets of rats after oral administration; type: in vivo, male SD rats; details: 100 mg/kg orally for 7 days
Experimental: A study was done on the effect of the preparation of the present invention on aggregation of blood platelets of the rats.
The aggregation of blood platelets was caused by using adenosine disodium diphosphate (ADP). 1 mg/ml ADP solution was kept refrigerated before use. When the ADP solution was about to be used, it was diluted three times with the phosphoric acid buffer solution.
The male SD rats were randomly divided into five groups in accordance with the body weight. These five groups were the distilled water comparative group, the aspirin group, the 200 mg/kg preparation group, the 100 mg/kg preparation group, and the 50 mg/kg preparation group. The drugs were orally administered, with the administration volume being […]. The rats of the distilled water comparative group were given distilled water in same quantity. The administration continued for 7 days. The rats were not fed for 12 hours prior to the final administration. One hour after the final administration the blood was drawn out from the main artery. The blood so draw out was prevented from aggregation by 3.8% sodium citrate (1:9). […] The aggregation degree was determined by using a SPA-4 multifunctional blood platelet aggregation meter. The inhibition rate of the blood platelet aggregation is calculated by the following formula. […]

[4] = system: thrombosis of the vein bypass of rats; experiment: Thrombosis of the vein bypass of rats; type: in vivo, male SD rats; details: 100 mg/kg orally
Description: A study was done on the effect of the preparation of the present invention on thrombosis of the vein bypass of the rats. The male SD rats were studied as compared with the aspirin. Thrombosis inhibition rate (%)=(distilled water comparative group thrombosis weight−drug group thrombosis weight)/distilled water comparative group thrombosis weight×100%.

Row | SMILES | d value ≧0.5, % [1] [%] | d value ≧0.5, day [1] [days] | d value ≧0.5 sum, % [1] [%] | d value ≧0.5 sum, day (period when the response time shows meaningful difference) [1] [days] | d value ≧0.8, % [1] [%] | d value ≧0.8, day [1] [days] | Arrival at destination after being trained, Error number [2] | Arrival at destination after being trained, Time [2] [s] | Arrival at destination after being trained, error number of animal [2] | Arrival at destination after being given alcohol, Error number ([2]; 30% ethanol 0.1 ml/10 g BW) | Arrival at destination after being given alcohol, Error rate ([2]; 30% ethanol 0.1 ml/10 g BW) | Arrival at destination after being given alcohol, Group error rate ([2]; 30% ethanol 0.1 ml/10 g BW) | Arrival at destination after being given alcohol, error number of animal ([2]; 30% ethanol 0.1 ml/10 g BW) | aggregation inhibition ([3]; vs distilled water group) [%] | maximum aggregation ([3]; ±SD) [%] | thrombosis inhibition rate ([4]; vs distilled water comparative group) [%] | thrombosis weight ([4]; x ± SD) [mg]
1 | NC(=O)CN1CCCC1=O [Piracetam] | 18.5 | 5 | 25.5 | 7 | 7.4 | 2 | 0/0 | 8.00 ± 0.46 | 0/0 | 54 | 9.00 times/number of animal | 5.40 times/number of animal | 6 | – | – | – | –
2 | CC(=O)Oc1ccccc1C(=O)O [aspirin] | – | – | – | – | – | – | – | – | – | – | – | – | – | 40.30 | 32.73 ± 11.14 | 34.97 | 29.2 ± 4.00
